Laboratory results taken from patent US9889113B2, “Method for reversing, preventing, delaying or stabilizing soft tissue calcification” (Panion & BF Biotech, Inc., priority 2006, dated 2018).

Columns and labels:
Type in all cases: in vivo, human
[1] = tested on: patients with end stage renal disease (ESRD); experiment: Treatment-emergent adverse events in the dose-ranging study
From the text: (§1) Objectives: (1) To determine the effect of ferric citrate at doses of 2, 4 and 6 g daily, administered TID (three times a day), for 28 days on serum phosphate (PO4) levels in patients with end stage renal disease (ESRD). (2) To evaluate the safety of ferric citrate at doses of 2, 4, 6 g daily, administered TID, for 28 days in patients with ESRD.
(§2) Study Design: Randomized, double-blind, placebo-controlled, dose-ranging study to assess the effect of ferric citrate on serum phosphate concentrations in patients with ESRD on hemodialysis. Patients are assessed at Study Days 14 and 28 for effectiveness as measured by serum phosphate concentrations. Patients who received one or more doses of study medication are also assessed for safety.

[2] = tested on: patients with end stage renal disease (ESRD) on hemodialysis; experiment: Randomized, double-blind, placebo-controlled, dose-ranging study of ferric citrate on serum phosphate, Ca and Ca×PO4; settings: Day 28; 2, 4, 6 g/day TID vs placebo
[3] = tested on: patients with end stage renal disease (ESRD) on hemodialysis; experiment: as above; settings: for Serum [Ca] (mg/dL) at Day 0 / Serum [PO4] (mg/dL) at Day 0 / [Ca] * [PO4] (mg/dL)^2 at Day 0: Day 0 baseline; for Serum Ca (mg/dL): Linear Regression: N.S.: Not Significant
From the text: as §1, §2
Study Duration: 8 weeks (including the screening period, 2 weeks washout, 4 weeks treatment)
Ferric citrate is administered orally, and is given equally three times a day.

[4] = 0, 2, 4 and 6 gm/day, TID immediately after meals
[5] = 6 g/day (N = 32), Day 28, *P < 0.05 baseline change vs placebo
[6] = Day 14, 2, 4, 6 g/day TID vs placebo
[7] = Day 28, 2, 4, 6 g/day TID vs placebo

Structure (SMILES): O=C([O-])CC(O)(CC(=O)[O-])C(=O)[O-].[Fe+3] [ferric citrate]
- GI Disorder, Probably (relationship): (%) ([1]; 6 g/day (N = 33)): (15.2) %
- GI Disorders (System Organ Class): # Event ([1]; 6 g/day (N = 33)): 10
- GI Disorders (System Organ Class): (%) ([1]; 6 g/day (N = 33)): (30.3) %
- GI Disorders, Mild (severity): # Event ([1]; 6 g/day (N = 33)): 9
- GI Disorders, Mild (severity): (%) ([1]; 6 g/day (N = 33)): (27.3) %
- General Disorders (System Organ Class): # Event ([1]; 6 g/day (N = 33)): 4
- General Disorders (System Organ Class): (%) ([1]; 6 g/day (N = 33)): (12.1) %
- Infections and Infestations (System Organ Class): # Event ([1]; 6 g/day (N = 33)): 1
- Infections and Infestations (System Organ Class): (%) ([1]; 6 g/day (N = 33)): (3.0) %
- Skin and SC Tissue Disorders (System Organ Class): # Event ([1]; 6 g/day (N = 33)): 4
- Skin and SC Tissue Disorders (System Organ Class): (%) ([1]; 6 g/day (N = 33)): (12.1) %
- T#at1AE, Definitely (relationship): # Event ([1]; 6 g/day (N = 33)): 0
- T#at1AE, Definitely (relationship): (%) ([1]; 6 g/day (N = 33)): (0.0) %
- T#at1AE, Mild (severity): # Event ([1]; 6 g/day (N = 33)): 14
- T#at1AE, Mild (severity): (%) ([1]; 6 g/day (N = 33)): (42.4) %
- T#at1AE, Moderate (severity): # Event ([1]; 6 g/day (N = 33)): 2
- T#at1AE, Moderate (severity): (%) ([1]; 6 g/day (N = 33)): (6.1) %
- T#at1AE, Possibly (relationship): # Event ([1]; 6 g/day (N = 33)): 2
- T#at1AE, Possibly (relationship): (%) ([1]; 6 g/day (N = 33)): (6.1) %
- T#at1AE, Probably (relationship): # Event ([1]; 6 g/day (N = 33)): 5
- T#at1AE, Probably (relationship): (%) ([1]; 6 g/day (N = 33)): (15.2) %
- T#at1AE, Severe (severity): # Event ([1]; 6 g/day (N = 33)): 1
- T#at1AE, Severe (severity): (%) ([1]; 6 g/day (N = 33)): (3.0) %
- Total number of subjects with at least one adverse event (T#at1AE): # Event ([1]; 6 g/day (N = 33)): 17
- Total number of subjects with at least one adverse event (T#at1AE): (%) ([1]; 6 g/day (N = 33)): (51.5) %
- side effect ([1]; Phase II study): minimum side effect
- Ca × PO4 (mg/dL)^2: Linear Regression P [2]: P = 0.0158
- Ca*PO4 [3, 4]: decrease
- serum PO4 [3, 4]: decrease
- Serum [Ca] (mg/dL) at Day 0 ([3]; 2 g/day (N = 31)): 8.78 mg/dL
- Serum [PO4] (mg/dL) at Day 0 ([3]; 2 g/day (N = 31)): 7.2 mg/dL
- [Ca] * [PO4] (mg/dL)^2 at Day 0 ([3]; 2 g/day (N = 31)): 62.9 (mg/dL)^2
- Serum [Ca] (mg/dL) at Day 14 ([3]; 2 g/day (N = 31), Day 14): 9.01 mg/dL
- Serum [PO4] (mg/dL) at Day 14 ([3]; 2 g/day (N = 31), Day 14): 6.7 mg/dL
- [Ca] * [PO4] (mg/dL)^2 at Day 14 ([3]; 2 g/day (N = 31), Day 14): 60.3 (mg/dL)^2
- Serum [Ca] (mg/dL) at Day 28 ([3]; 2 g/day (N = 31), Day 28): 9.00 mg/dL
- Serum [PO4] (mg/dL) at Day 28 ([3]; 2 g/day (N = 31), Day 28): 6.9 mg/dL
- [Ca] * [PO4] (mg/dL)^2 at Day 28 ([3]; 2 g/day (N = 31), Day 28): 61.7 (mg/dL)^2
- Serum [Ca] (mg/dL) at Day 0 ([3]; 4 g/day (N = 32)): 9.02 mg/dL
- Serum [PO4] (mg/dL) at Day 0 ([3]; 4 g/day (N = 32)): 7.1 mg/dL
- [Ca] * [PO4] (mg/dL)^2 at Day 0 ([3]; 4 g/day (N = 32)): 63.5 (mg/dL)^2
- Serum [Ca] (mg/dL) at Day 14 ([3]; 4 g/day (N = 32), Day 14): 9.47 mg/dL
- Serum [PO4] (mg/dL) at Day 14 ([3]; 4 g/day (N = 32), Day 14): 6.4 mg/dL
- [Ca] * [PO4] (mg/dL)^2 at Day 14 ([3]; 4 g/day (N = 32), Day 14): 59.9 (mg/dL)^2
- Serum [Ca] (mg/dL) at Day 28 ([3]; 4 g/day (N = 32), Day 28): 9.29 mg/dL
- Serum [PO4] (mg/dL) at Day 28 ([3]; 4 g/day (N = 32), Day 28): 6.0 mg/dL
- [Ca] * [PO4] (mg/dL)^2 at Day 28 ([3]; 4 g/day (N = 32), Day 28): 55.4 (mg/dL)^2
- Serum [Ca] (mg/dL) at Day 0 ([3]; 6 g/day (N = 32)): 8.99 mg/dL
- Serum [PO4] (mg/dL) at Day 0 ([3]; 6 g/day (N = 32)): 7.3 mg/dL
- [Ca] * [PO4] (mg/dL)^2 at Day 0 ([3]; 6 g/day (N = 32)): 65.8 (mg/dL)^2
- Serum [Ca] (mg/dL) at Day 14 ([3]; 6 g/day (N = 32), Day 14): 9.13 mg/dL
- Serum [PO4] (mg/dL) at Day 14 ([3]; 6 g/day (N = 32), Day 14): 6.3 mg/dL
- [Ca] * [PO4] (mg/dL)^2 at Day 14 ([3]; 6 g/day (N = 32), Day 14): 57.5 (mg/dL)^2
- Serum [Ca] (mg/dL) at Day 28 ([3]; 6 g/day (N = 32), Day 28): 9.26 mg/dL
- Serum [PO4] (mg/dL) at Day 28 [3, 5]: 5.8 mg/dL
- [Ca] * [PO4] (mg/dL)^2 at Day 28 [3, 5]: 54.1 (mg/dL)^2
- Ca*P04 levels ([3]; 6 gm/day dose at both 14 and 28 days): have decreased and were statistically significant
- Serum Ca (mg/dL): Dose Response ([3]; Day 0): No
- Ca × PO4 (mg/dL)^2: Dose Response [3, 6]: Yes
- Ca × PO4 (mg/dL)^2: Linear Regression P [3, 6]: P = 0.0401
- Ca × PO4 (mg/dL)^2: Statistical Significant [3, 6]: No
- Serum Ca (mg/dL): Dose Response [3, 6]: No
- Serum Ca (mg/dL): Statistical Significant [3, 6]: No
- Serum PO4 (mg/dL): Dose Response [3, 6]: No
- Serum PO4 (mg/dL): Statistical Significant [3, 6]: No
- Serum Ca (mg/dL): Linear Regression ([3]; Day 14): N.S.
- Ca × PO4 (mg/dL)^2: Dose Response [3, 7]: Yes
- Serum Ca (mg/dL): Dose Response [3, 7]: No
- Serum Ca (mg/dL): Statistical Significant [3, 7]: No
- Serum PO4 (mg/dL): Dose Response [3, 7]: Yes
- Serum PO4 (mg/dL): Linear Regression P [3, 7]: P = 0.0073
- Serum PO4 (mg/dL): Statistical Significant [3, 7]: Yes (6 g/day)
- [Ca] * [PO4] (mg/dL)^2: Dose Response ([3]; Day 28, 2, 4, 6 g/day vs placebo): Yes
- Serum Ca (mg/dL): Linear Regression ([3]; Day 28): N.S.
- Ca × PO4 (mg/dL)^2: Statistical Significant ([3]; Day 78, 2, 4, 6 g/day TID vs placebo): Yes (6 g/day)
- serum Ca×P ([3]; Phase II study): decrease serum Ca×P in a dose-dependent manner
- change in serum calcium level ([3]; during the 28 days, 2, 4, and 6 gm/day): No significant change
- ability to lower serum phosphate levels ([3]; patients with ESRD): demonstrated
